Reference: PMC12362618, “Development of the First Small-Molecule Inhibitor Targeting Oncostatin M for Treatment of Breast Cancer” (Journal of Medicinal Chemistry, 2025)
Entries after “also recorded” stand apart in the source; their conditions may differ. Read-outs that look alike come from different tables or passages of the source.

Tests used:
[1] = biological target: T1, gp130 binding to immobilized OSM (Homo sapiens, UniProt P13725); experiment: SPR surface competition binding assay between gp130 and SMI for immobilized OSM; conditions: gp130 50 nM
T1 construct: purchased R&D Systems 671-GP
T1 sequence (P13725 26-212 limits assumed): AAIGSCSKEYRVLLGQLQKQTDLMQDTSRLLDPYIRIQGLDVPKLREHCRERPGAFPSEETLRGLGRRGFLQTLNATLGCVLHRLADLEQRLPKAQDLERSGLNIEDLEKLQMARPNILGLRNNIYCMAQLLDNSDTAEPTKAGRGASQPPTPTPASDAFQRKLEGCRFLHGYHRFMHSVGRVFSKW
Procedure: SPR experiments were performed on a Reichert SR7000 instrument that was fed by a Surveyor LC autosampler and pump. All experiments were conducted at 25 °C. In all experiments, OSM (∼24 kDa; as previously described) was immobilized to the surface of a PEF-10% carboxyl mixed self-assembled monolayer gold sensor chip (Reichert part #13206061), and the experiments were completed within 3 days. The immobilization phase was conducted using sterile-filtered, fresh 10 mM acetate buffer, pH 5, at a flow rate of 15 μL/min. The chip was first washed with 100 μL of 2 M NaCl in DI water and 100 μL of 10 mM NaOH in DI water. The chip was activated with a 100 μL injection of 10 mg/mL N-hydroxysuccinimide (NHS) and 40 mg/mL 1-ethyl-3-(3-dimethylaminopropyl)­carbodiimide (EDC) mixed in 1 mL of nanopure water immediately before injecting. Then, a 200 μg/mL solution of OSM (100–300 μL) in acetate buffer was diluted and injected multiple times with 100 μL injections to achieve a response of about 600–1000 RU. The remaining reactive NHS groups were then deactivated with a 100 μL injection of 1 M ethanolamine hydrochloride in DI H2O. […] The real-time changes in refractive index units of the association and dissociation phases were monitored. […]

[2] = tested on: OSM-mediated STAT3 phosphorylation in MCF-7 cells; experiment: pSTAT3 ELISA in MCF-7 cells treated with OSM ± SMI; assay type: cell-based; conditions: Homo sapiens, MCF7
Procedure: For phospho-STAT3 (pSTAT3) ELISAs, T47D MDA-MB-231, and MCF-7 cells were seeded in 12- or 24-well plates at 70–75% confluency and allowed to adhere overnight, after which cells were serum-starved with serum-free RPMI-1640 for 4 h. SMIs (10 μM in DMSO or serially diluted to specified concentrations from a 100 mM stock in DMSO) and human recombinant OSM (10 ng/mL; PeproTech; #300–10T-10UG) were incubated in serum-free RPMI-1640 medium for 1 h. After incubation, the SMI-10 analogs or SMI-10B13 and OSM were added to the serum-starved cells for 30 min. Immediately afterward, the cells were lysed using 1x PathScan Sandwich ELISA Lysis Buffer (Cell Signaling Technology; #7018S), collected, and stored at −20 °C. Lysates were analyzed for pSTAT3 levels using either the PathScan Phospho-STAT3 (Tyr705) Sandwich ELISA Antibody Pair kit (Cell Signaling Technology; #7146) or Human/Mouse Phospho-STAT3 (Y705) DuoSet IC ELISA (R&D Systems; DYC4607B), according to manufacture’s protocol. pSTAT3 expression was measured with absorbance at 450 nm and quantified by comparison relative to OSM-induced pSTAT3 levels. To calculate an IC50 for SMI-10B13, a standard curve was generated as described in the DuoSet IC ELISA datasheet to determine the concentration of pSTAT3.

[3] = tested on: MCF-7-luc-OSM-overexpressing cells; assay type: in vivo
Procedure: To evaluate SMI-10B13 on OSM inhibition in vivo, athymic nu/nu mice were randomized and given equal dose of either vehicle or SMI-10B13 (50 mg/kg) 12 h before tumor cell injection. Mice were then injected with 2 × 10^6 cells in the fourth mammary fat pad and monitored for tumor growth over 40 days, receiving either vehicle or SMI-10B13 treatment 3x weekly and evaluated for tumor growth until the end point of the experiment (Figure A).
(§1) Seven- to eight-week-old athymic nu/nu mice were purchased from Jackson Laboratory and quarantined for 6 days. Twelve hours before tumor cell injection, the mice were grouped and injected intraperitoneally (i.p.) with 50 mg/kg of SMI-10B13 or vehicle (10% DMSO, 10% EtOH, 20% Cremophor EL, 60% propylene glycol; diluted in half with PBS). The following morning, MCF-7-Luc-flOSM cells (described above) were grown to 70–75% confluency, and the cells were concentrated to 4.0 × 10^7 cells/mL in PBS containing serum-free RPMI-1640. A 50 μL cell suspension was injected into the fourth mammary fat pad, resulting in 2.0 × 10^6 cells/injection. Mice were then injected (via i.p.) 3x weekly with SMI-10B13 or the vehicle control. Mice were also injected 1x weekly with D-luciferin (PerkinElmer; 122799–5) for bioluminescence detection for a period of 40–50 days, and 3x weekly for tumor growth via caliper measurement. Animals were sacrificed, and their serum and tumors were collected for analysis. Organs were harvested, and ex vivo imaging was performed to evaluate metastasis. All in vivo and ex vivo imaging was performed as previously described. All animal experiments were performed following the protocols evaluated and approved by the Boise State University Institutional Animal Care and Use Committee (IACUC) (Ethics Approval Number: AC23-043).

[4] = tested on: MCF-7-luc-OSM-overexpressing breast tumor cells; experiment: ER+ orthotopic xenograft, survival and metastasis over 50 days; assay type: in vivo, athymic nu/nu mice
Procedure: To evaluate the effectiveness of SMI-10B13 against survivability and metastasis, we performed a related but separate experiment. As before, mice were treated with either vehicle or SMI-10B13 12 h prior to tumor cell injection and monitored for tumor growth while receiving treatment 3x weekly (Figure A). […] After 50 days, all mice were sacrificed, and metastases were evaluated with ex vivo imaging. […] Thus, for the first time, we have shown that an anti-OSM small molecule inhibitor may inhibit breast cancer progression and metastasis.
as §1

[5] = biological target: T2, OSM (Homo sapiens, UniProt P13725); set-up: method as in earlier report of the authors (Mass et al.); conditions: binds to OSM's site III pocket; ref earlier report of the authors (Mass et al.); read-out: dissociation constant (KD), previously described; cited from earlier work
T2 sequence (P13725 26-252): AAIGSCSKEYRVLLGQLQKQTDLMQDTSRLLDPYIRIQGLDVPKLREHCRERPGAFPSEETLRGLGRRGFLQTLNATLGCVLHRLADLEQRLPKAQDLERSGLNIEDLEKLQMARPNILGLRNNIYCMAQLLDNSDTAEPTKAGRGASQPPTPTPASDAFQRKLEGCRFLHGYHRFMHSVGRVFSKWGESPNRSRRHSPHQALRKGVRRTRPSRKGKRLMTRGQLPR

Compound | Inhibition of gp130 binding to immobilized OSM ([1]; SMI 100 μM) | IC50 ([1]; SPR surface competition, estimated, read-out: estimated IC50 for inhibition of gp130 binding to immobilized OSM) | IC50 ([2]; Figure S3 graph B (MCF-7 by order), four parameter nonlinear regression, given as negative log value, read-out: LogIC50 (graph B) (converted)) | IC50 ([2]; MCF-7 cells, ELISA, read-out: IC50 for inhibition of STAT3 phosphorylation) | Tumor size diameter (mm) at end point vs vehicle control ([3]; 50 mg/kg i.p. 3x weekly, 40 days, caliper) | Bioluminescent tumor detection vs vehicle control ([3]; 50 mg/kg i.p. 3x weekly, 40 days, weekly imaging) | Signs of drug-related toxicity in mice ([3]; mouse, in vivo) | Survival (Kaplan-Meier) vs vehicle ([4]; 50 mg/kg i.p. 3x weekly, 50 days, p = 0.04) | Lung metastases fluorescent intensity (ex vivo imaging) ([4]; 50 mg/kg i.p. 3x weekly, after 50 days) | Tumor size vs vehicle ([4]; 50 days experiment, end point) | Lung metastasis intensity vs vehicle ([4]; ex vivo imaging, 50 days) | Kd [5]
O=C(O)/C=C/c1cc(-c2ccc3cc[nH]c3c2)c(-c2ccc3cc[nH]c3c2)o1 [SMI-10B13, (E)-3-(4,5-di(1H-Indol-6-yl)furan-2-yl)acrylic Acid] | almost completely inhibited | 30000 to 100000 nM | 164 nM | 164 nM | significant reduction in tumor mm size | significant reduction in bioluminescent detection | none of the mice injected with SMI exhibited any signs of drug-related toxicity | improved survival; also recorded: prolonged survival; also recorded: increase survival | 41.9 × 10^5 intensity | overall smaller tumors | reduction in intensity was not statistically significant; also recorded: trend toward significance in decreasing lung metastasis intensity | 
O=C(O)/C=C/c1cc(-c2ccc3c(c2)OCO3)c(-c2ccc3c(c2)OCO3)o1 [SMI-10B, (E)-3-(4,5-Bis(benzo[d][1,3]dioxol-5-yl)furan-2-yl)acrylic acid] |  |  |  |  |  |  |  |  |  |  |  | < 13000 nM
